What was measured:
[1] = test system: subcutaneous NB animal model; settings: oral administration; cited from earlier work
non-tumoral cells = settings: cited from earlier work
[2] = cited from earlier work
c-Src tyrosine kinase = settings: cited from earlier work
[3] = set-up: method as in PMID 31248184; settings: 25 mg/kg, free compound in vivo; cited from earlier work
HTLA-230 = test: MTT cytotoxicity assay; format: cell-based; settings: Homo sapiens, 24 h exposure, 96 h total, ± S.D.
Protocol: (§1) Cytotoxicity experiments were performed to evaluate the effectiveness of Si306, either free (dissolved in DMSO) or encapsulated into untargeted and GD2-targeted liposomes. Briefly, IMR-32, HTLA-230 and SH-SY5Y cells were seeded in 96-well plates (8 × 10^3 cells/well). Human fibroblasts were used as GD2-negative healthy control cells (5 × 10^3 cells/well). The day after seeding, cells were incubated with increasing concentration of Si306 (0.1, 1.0, 10.0 and, 100.0 μM) either free or liposomes-encapsulated, for 24 h at 37 °C. Cells were then washed twice with PBS before replacing them with fresh complete medium and incubating for an additional 72 h (total incubation time equal to 96 h). At the end of the incubation, the MTT (Sigma) assay was performed. The tetrazolium dye was added, then plates were incubated for 3–4 h at 37 °C; formazan crystals were then dissolved in acid isopropanol, and then the optical density of the stained solution was quantified by the use of a Multiskan™ FC Microplate Photometer (Thermo Fisher Scientific Italia, Monza, Italy) at the dual wavelengths of 570 and 650 nm.

IMR-32 = test: MTT cytotoxicity assay; format: cell-based; settings: Homo sapiens, 24 h exposure, 96 h total, ± S.D.
Protocol: as §1

SH-SY5Y = test: MTT cytotoxicity assay; format: cell-based; settings: Homo sapiens, 24 h exposure, 96 h total, ± S.D.
Protocol: as §1

## ClC(Cn1ncc2c(Nc3cccc(Br)c3)nc(SCCN3CCOCC3)nc21)c1ccccc1 (centres unmarked) [Si306]
[1]
  tumor growth: delay of tumor growth
non-tumoral cells
  activity in non-tumoral cells: negligible activity
[2]
  water solubility: low water solubility
c-Src tyrosine kinase
  Ki: 0.13 µM
[3]
  signs of toxicity: without signs of toxicity
HTLA-230
  IC50: 2.9 ± 0.3 µM
IMR-32
  IC50: 5.9 ± 1.4 µM
SH-SY5Y
  IC50: 19.6 ± 0.7 µM

Reference: article PMC8945814, “The Pyrazolo[3,4-d]Pyrimidine Derivative Si306 Encapsulated into Anti-GD2-Immunoliposomes as Therapeutic Treatment of Neuroblastoma” (Biomedicines, 2022)
